Laboratory results reported in US10889572B2, “Reactive oxygen species scavengers and use for treating diseases” (XW LABORATORIES INC., priority 2017, dated 2021).
Structures can show the parent of a compound that is named as a salt.

Test system: HT-1080 (fibrosarcoma) cells
Experiment: Primary screening by ferroptosis assay (Erastin-induced, cell viability, CellTiter-Glo)
Assay type: cell-based
Conditions: HT-1080 cells, 30 hours, % remaining activity, read-out: EC50, Inhibition for Ferroptosis in HT-1080 Cell
Protocol: Cell Lines and Media: HT-1080 (fibrosarcoma) cells were obtained from American Type Culture Collection. Cells were grown in EMEM media, 10% Heat-Inactivated FBS, and penicillin-streptomycin mix (Invitrogen). Cells were maintained at 37° C. and 5% CO2 in a tissue culture incubator.
Cell Viability Assay: Seed 10,000 cell/well of HT-1080 cells with 195 μL growth media in black and clear bottom 96-well plates (Cat #Corning 3904) and allow cells to adhere overnight. The next day, dilute test compound by 2-fold dilution into 12 points with medium containing 400 μM Erastin. Transfer 5 μL of compounds solution into growth medium in triplicated wells. 30 hours later, add Cell Titer-Glo® Luminescent cell viability assay reagent (Cat #, Promega G8081) to measure HT-1080 cell viability according to the manufacture protocol. Briefly, aspirate 100 μL medium, and add 50 μL CellTiter-Glo® Luminescent reagent to each well and incubated for 30 minutes at room temperature to stabilize the Luminescent signal. Seal the plates and centrifuged for 1 minute at 1,000 rpm to remove bubbles. Shake the plates for 1 minute on an orbital shaker. Read the plate to detect Luminescent signal with EnSpire Multimode Plate Reader (PerkinElmer). The remaining activity % is used to evaluate Erastin induced ferroptosis in HT-1080 cells and expressed as the following formula: % Remaining Activity−100×[(Sample−Backgroundavg)/(Vehicle−Background avg)]
Sample: Readout from the test compound
Vehicle: Readout from the vehicle sample
Background: Readout from the Erastin only treatment
Dose response curve is graphed by using the non-linear regression analysis (formula equation 201) in XLFit (Excel add-in software) for the average % remaining activity from triplicates, and the EC50 values is then calculated. In this anti-ferroptosis assay, ferrostatin-1, and XJB-5-131 are included as reference. The acceptance criteria were set based on historical result, mean±2.58*SD in logarithmic scale, meanwhile Z′>0.5.

Q: With `CC(C)C[C@@H](/C=C/[C@H](Cc1ccccc1)C(=O)N1CCC[C@H]1C(=O)N[C@@H](CCCNC(=O)OCc1ccccc1)C(=O)OC1CC(C)(C)N(O)C(C)(C)C1)NC(=O)OC(C)(C)C` [Example XXXXI, (S)-1-hydroxy-2,2,6,6-tetramethylpiperidin-4-yl 2-((S)-1-((2S,5S,E)-2-benzyl-5-((tert-butoxycarbonyl)amino)-7-methyloct-3-enoyl)pyrrolidine-2-carboxamido)-5-(((benzyloxy)carbonyl)amino)pentanoate] as the compound, how does the EC50 read?
A: 0.139 µM

Q: With `CC(C)C[C@@H](/C=C/[C@H](Cc1ccccc1)C(=O)N1CCC[C@H]1C(=O)N[C@@H](CCCCNC(=O)OCc1ccccc1)C(=O)NC1CC(C)(C)N(O)C(C)(C)C1)NC(=O)OC(C)(C)C` [Example XXVII, Benzyl N-[(5S)—5-{[(2S)-1-[(2S,3E,5S)-2-benzyl-5-{[(tertbutoxy)carbonyl]amino}-7-methyloct-3-enoyl]pyrrolidin-2-yl]formamido}-5-[(1-hydroxy-2,2,6,6-tetramethylpipe-ridin-4-yl)carbamoyl]pentyl]carbamate] as the compound, how does the EC50 read?
A: 0.141 µM

Same assay, conditions: Homo sapiens, HT-1080, 30 h, HT-1080 cells, % remaining activity, read-out: EC50, Inhibition for Ferroptosis in HT-1080 Cell

Q: How did the EC50 turn out when `CC(C)C[C@@H](/C=C/[C@H](Cc1ccccc1)C(=O)N1CCC[C@H]1C(=O)N[C@@H](CCCNC(=O)OC1CC(C)(C)N(O)C(C)(C)C1)C(=O)NC1CC(C)(C)N(O)C(C)(C)C1)NC(=O)OC(C)(C)C` [XXXXIII, 1-Hydroxy-2,2,6,6-tetramethylpiperidin-4-yl N-[(4S)—4-{[(2S)-1-[(2S,3E,5S)-2-benzyl-5-{[(tert-butoxy)carbonyl]amino}-7-methyloct-3-enoyl]pyrrolidin-2-yl]formamido}-4-[(1-hydroxy-2,2,6,6-tetramethylpiperidin-4-yl)carbamoyl]butyl]carbamate] was run?
A: 0.123 µM

Q: Which EC50 does the source give for `CC(C)C[C@@H](/C=C/[C@H](Cc1ccccc1)C(=O)N1CCC[C@H]1C(=O)N[C@@H](CCCNC(=O)OCc1ccccc1)C(=O)OC1CC(C)(C)N(O)C(C)(C)C1)NC(=O)OC(C)(C)C` [Example XXXX, (S)-1-Oxyl-2,2,6,6-tetramethylpiperidin-4-yl 2-((S)-1-((2S,5S,E)-2-benzyl-5-((tert-butoxycarbonyl)amino)-7-methyloct-3-enoyl)pyrrolidine-2-carboxamido)-5-(((benzyloxy)carbonyl)amino)pentanoate] here?
A: 0.14 µM

Q: How did the EC50 turn out when `CCN(CC)C(=O)[C@H](CCCNC(=O)OC1CC(C)(C)N(O)C(C)(C)C1)NC(=O)[C@@H]1CCCN1C(=O)[C@H](/C=C/[C@H](CC(C)C)NC(=O)OC(C)(C)C)Cc1ccccc1` [Example XXXV, tert-Butyl N-[(4S,5E,7S)-7-benzyl-8-[(2S)—2-{[(1S)-1-(diethylcarbamoyl)-4-({[(1-oxyl-2,2,6,6-tetramethylpiperidin-4-yl)oxy]carbonyl}amino)-butyl]carbamoyl}pyrrolidin-1-yl]-2-methyl-8-oxooct-5-en-4-yl]carbamate] was run?
A: 0.192 µM

Q: Which EC50 does the source give for `CC(C)C[C@H](N)/C=C/[C@H](Cc1ccccc1)C(=O)N1CCC[C@H]1C(=O)N[C@H](CCCNC(=O)OCc1ccccc1)C(=O)NC1CC(C)(C)N(O)C(C)(C)C1` [Example XIII, Benzyl N-[(4R)—4-{[(2S)-1-[(2S,3E,5S)-5-amino-2-benzyl-7-methyloct-3-enoyl]pyrrolidin-2-yl]formamido}-4-[(1-hydroxy-2,2,6,6-tetramethyl-piperidin-4-yl)carbamoyl]butyl]carbamate dihydrochloride] here?
A: 0.262 µM

Q: Which EC50 does the source give for `CC(C)C[C@@H](/C=C/[C@H](Cc1ccccc1)C(=O)N1CCC[C@H]1C(=O)N[C@H](CCCCNC(=O)OC1CC(C)(C)N(O)C(C)(C)C1)C(=O)OC(C)C)NC(=O)OC(C)(C)C` [Example XXXIII, Propan-2-yl (2R)—2-{[(2S)-1-[(2S,3E,5S)-2-benzyl-5-{[(tert-butoxy)carbonyl]amino}-7-methyloct-3-enoyl]pyrrolidin-2-yl]formamido}-6-({[(1-oxyl-2,2,6,6-tetramethylpiperidin-4-yl)oxy]carbonyl}amino)hexanoate] here?
A: 0.291 µM

Q: For `CC(C)C[C@@H](/C=C/[C@H](Cc1ccccc1)C(=O)N1CCC[C@H]1C(=O)N1CCC[C@H]1C(=O)N[C@@H](CCCNC(=O)OCc1ccccc1)C(=O)NC1CC(C)(C)N(O)C(C)(C)C1)NC(=O)OC(C)(C)C` [Example XI, Benzyl N-[(4S)-4-1-{[(2S)-1-[(2S)-1-[(2R,3E,5S)-2-benzyl-5-{[(tert-butoxy)carbonyl]amino}-7-methyloct-3-enoyl]pyrrolidine-2-carbonyl]pyrrolidin-2-yl]formamido}-4-[(1-hydroxy-2,2,6,6-tetramethylpiperidin-4-yl)carbamoyl]butyl]carbamate], which EC50 is on record?
A: 0.526 µM

Q: With `CC(C)C[C@@H](/C=C/[C@H](Cc1ccccc1)C(=O)N1CCC[C@@H]1C(=O)NC1CC(C)(C)N(O)C(C)(C)C1)NC(=O)OC(C)(C)C` [Example VI, tert-Butyl N-[(4S,5E,7S)-7-benzyl-8-[(2R)-2-[(1-hydroxy-2,2,6,6-tetramethylpiperidin-4-yl)carbamoyl]pyrrolidin-1-yl]-2-methyl-8-oxooct-5-en-4-yl]carbamate] as the compound, how does the EC50 read?
A: 1.02 µM

Q: Which EC50 does the source give for `Cc1cc(O)cc(C)c1CNC(=O)[C@H](CCCNC(=O)OCc1ccccc1)NC(=O)[C@@H]1CCCN1C(=O)[C@H](/C=C/[C@H](CC(C)C)NC(=O)OC(C)(C)C)Cc1ccccc1` [Example XXIV, Benzyl N-[(4S)—4-{[(2S)-1-[(2S,3E,5S)-2-benzyl-5-{ [(tert-butoxy)carbonyl]amino}-7-methyloct-3-enoyl]pyrrolidin-2-yl]formamido}-4-{[(4-hydroxy-2,6-dimethylphenyl)methyl]carbamoyl}butyl]carbamate] here?
A: > 4 µM

Q: With `CC(C)C[C@@H](/C=C/[C@H](Cc1ccccc1)C(=O)N1CCC[C@H]1C(=O)N[C@H](C(=O)N[C@@H](CCCNC(=O)OCc1ccccc1)C(=O)NC1CC(C)(C)N(O)C(C)(C)C1)C(C)C)NC(=O)OC1CC(C)(C)N(O)C(C)(C)C1` [Example XXV, 1-Hydroxy-2,2,6,6-tetramethylpiperidin-4-yl N-[(4S,5E,7S)-7-benzyl-8-[(2S)—2-{[(1S)—1-{[(1S)—4-{[(benzyloxy)carbonyl]amino}-1-[(1-hydroxy-2,2,6,6-tetramethylpiperidin-4-yl)carbamoyl]butyl]carbamoyl}-2-methylpropyl]carbamoyl}pyrrolidin-1-yl]-2-methyl-8-oxooct-5-en-4-yl]carbamate dihydrochloride] as the compound, how does the EC50 read?
A: 0.255 µM

Same assay, conditions: Homo sapiens, HT-1080 cells, 30 hours, % remaining activity, read-out: EC50, Inhibition for Ferroptosis in HT-1080 Cell

Q: For `CC(C)C[C@@H](/C=C/[C@H](Cc1ccccc1)C(=O)N1CCC[C@H]1C(=O)N[C@H](C(=O)N[C@@H](CCCNC(=O)OC1CC(C)(C)N(O)C(C)(C)C1)C(=O)NC(C)C)C(C)C)NC(=O)OC(C)(C)C` [Example XXXXVII, tert-Butyl N-[(4S,5E,7S)-7-benzyl-8-[(2S)—2-{[(1S)—1-{[(1S)-4-({[(1-oxyl-2,2,6,6-tetramethylpiperidin-4-yl)oxy]carbonyl}amino)-1-[(propan-2-yl)carbamoyl]butyl]carbamoyl}-2-methylpropyl]carbamoyl}pyrrolidin-1-yl]-2-methyl-8-oxooct-5-en-4-yl]carbamate], which EC50 is on record?
A: 0.143 µM

Q: For `CC(C)C[C@H](N)/C=C/[C@H](Cc1ccccc1)C(=O)N1CCC[C@H]1C(=O)N[C@H](C(=O)N[C@@H](CCCNC(=O)OCc1ccccc1)C(=O)NC1CC(C)(C)N(O)C(C)(C)C1)C(C)C` [Example XV, Benzyl N-[(4S)-4-[(2S)—2-{[(2S)-1-[(2S,3E,5S)-5-amino-2-benzyl-7-methyloct-3-enoyl]pyrrolidin-2-yl]formamido}-3-methylbutanamido]-4-[(1-hydroxy-2,2,6,6-tetramethylpiperidin-4-yl)carbamoyl]butyl]carbamate trifluoroacetic acid salt], which EC50 is on record?
A: 2.23 µM
